According to article PMC10748079, “Discovery of Potent Indolyl-Hydrazones as Kinase Inhibitors for Breast Cancer: Synthesis, X-ray Single-Crystal Analysis, and In Vitro and In Vivo Anti-Cancer Activity Evaluation” (Pharmaceuticals, 2023):
Where “and” joins values, the source holds several entries; their conditions need not be identical. Equal values may be shown once.

Key:
[1] = test system: MCF-7 breast cancer cells; test: MTT cytotoxicity assay; format: cell-based; conditions: for IC50: MCF-7 cells, MTT, 48 h, mean ± SD of three independent values; for fold higher potency than reference drug staurosporine against MCF-7: versus staurosporine
Experimental: The National Research Institute in Egypt donated the breast cancer (MCF-7) cells, which were collected and cultured in RPMI-1640 medium L-glutamine (Lonza Verviers SPRL, Verviers, Belgium, cat#12-604F). The 10% fetal bovine serum (FBS; Sigma-Aldrich, St. Louis, MO, USA) and 1% penicillin-streptomycin (Lonza, Belgium) were given to each of the two cell lines.
All cells were cultured, following routine tissue culture work, in 5% CO2 humidified at 37 °C. Cells were exposed to compounds at concentrations of 0.01, 0.1, 1, 10, and 100 μM on the second day of culturing. After 48 h, cell viability was evaluated using the MTT solution (Promega, Madison, WI, USA). MTT dye (20 μL) was placed into each well, and the plate was then incubated for three hours. Absorbance was subsequently measured at 570 nm using the ELISA microplate reader (BIO-RAD, model iMark, Tokyo, Japan), and the percentage of cell viability was calculated, compared to control, as (mean absorbance of tested compound)/(mean absorbance in control) × 100. Finally, IC50 values were found using the nonlinear dose–response sigmoidal curve in GraphPad Prism 7 [39].

PI3K-δ = molecular target: T1, PI3K-δ (Homo sapiens, UniProt O00329); test: Kinase inhibitory assay (ELISA kit); format: biochemical; conditions: average of three independent replicates; read-out: IC50 ± SD PI3K-δ
T1 construct: purchased Bioscience, USA #40628
Experimental: EGFR (catalog #40321), CDK2 (catalog #79599), AKT (catalog #78038), PI3K-α (catalog #40639), β (catalog #79802), and δ (catalog #40628) kinase inhibitions were conducted using an ELISA kit in accordance with the manufacturer instructions from Bioscience, USA. To assess the inhibitory potency of compound 5 against the kinase activity, kinase inhibitory tests were carried out. The following calculation was used to compute the proportion that chemicals inhibited autophosphorylation: […]. Using the GraphPad prism7 program, the IC50 was calculated using the curves of percentage inhibition of five concentrations of each chemical.

PI3K-α = molecular target: T2, PI3K-α (Homo sapiens, UniProt P42336); test: Kinase inhibitory assay (ELISA kit); format: biochemical
T2 construct: purchased Bioscience, USA #40639
Experimental: (§1) The following calculation was used to compute the proportion that chemicals inhibited autophosphorylation: […]. Using the GraphPad prism7 program, the IC50 was calculated using the curves of percentage inhibition of five concentrations of each chemical.

EGFR = molecular target: T3, EGFR (Homo sapiens, UniProt P00533); test: Kinase inhibitory assay (ELISA kit); format: biochemical; conditions: average of three independent replicates; read-out: IC50 ± SD EGFR
T3 construct: purchased Bioscience, USA #40321
Experimental: as §1

CDK2 = molecular target: T4, CDK2 (Homo sapiens, UniProt P24941); test: Kinase inhibitory assay (ELISA kit); format: biochemical; conditions: average of three independent replicates; read-out: IC50 ± SD CDK2
T4 construct: purchased Bioscience, USA #79599
Experimental: as §1

AKT-1 = molecular target: T5, AKT-1 (Homo sapiens, UniProt P31749); test: Kinase inhibitory assay (ELISA kit); format: biochemical; conditions: average of three independent replicates; read-out: IC50 ± SD AKT-1
T5 construct: purchased Bioscience, USA #78038
Experimental: as §1

PI3K-β = molecular target: T6, PI3K-β (Homo sapiens, UniProt P42338); test: Kinase inhibitory assay (ELISA kit); format: biochemical; conditions: average of three independent replicates; read-out: IC50 ± SD PI3K-β
T6 construct: purchased Bioscience, USA #79802
Experimental: as §1

[2] = test system: Solid Ehrlich carcinoma (SEC); test: In vivo antitumor activity in SEC-bearing mice; set-up: species or system Swiss albino mice; conditions: IP, 5 mg/kg; for solid tumor mass: SEC control 398.1 mg; for tumor proliferation inhibition (TIR%): TIR% = C − T/C × 100
Experimental: The Suez Canal University Research Ethics Committee gave the experimental procedure their seal of approval (approval number REC219/2023, Faculty of Science, Suez Canal University). The full, detailed methodology is supported in the Supplementary Materials.
Animals and tumor cell line
Adult female Swiss albino mice purchased from Theodor Bilharzia Research Institute, Giza, Egypt, with an average body weight of (18-23) g was used. Mice were housed under constant conditions of 12 h light/dark cycle in a […], with free access to standard laboratory mice food and water .All procedures related to care and maintenance of the animals were performed according to the international guiding principles for animal research and approved by Faculty of Science, Suez Canal University bioethics and animal ethics committee (Approval […]
Solid Ehrlich carcinoma (SEC) were got from the National Cancer Institute (Cairo University, Egypt). The tumor cell line was proliferated in mice through serial intraperitoneal (I.P.) transplantation of a volume of 0.2 mL physiological saline contains 1 × 10^6 viable cells for 24 h. SEC cells were collected 7 days after I.P. implantation. The harvested cells were diluted with saline to obtain a concentration of 5 × 10^6 viable SEC cells/mL. A volume of 0.2 mL saline contains 1 × 10^6 SEC cells that were I.P. implanted into each normal mouse. SEC cells (1 × 10^6 tumor cells/mouse) were implanted subcutaneously into the right thigh of the hind limb.
The experimental animals were randomly divided into four groups. Group 1 served as the normal saline control (5 mL/kg B.Wt., I.P.). Group 2 served as the SEC control (1 × 10^6 cells/mouse). Group 3 served as the compound-treated group (5 mg/kg B.Wt., I.P.).
Group 4 received the standard anticancer drug of Doxorubicin (DOX) (5 mg/kg BW, I.P.) and is considered as a reference control. Body weight and survival were recorded daily until the 24th day in both treated and control groups. At the end of experiment, the blood of each group was collected under light anesthesia for estimation of hematological and biochemical assays. The anesthetized animals were then sacrificed for evaluation of the antitumor activity and histopathological examination.
It includes tumor volume, weight, and tumor inhibition ration (TIR%). Time interval measurements of tumor volume using digital Vernier caliper (Tricle Brand, Shanghai, […]
China). Measure tumor length and width using clipper and then calculate tumor volume using formulations V = (L x W x W)/2, where V is tumor volume, W is tumor width, L is […]
tumor length. […]

MCF-7 cells [3] = test: Annexin V/PI staining flow cytometry (apoptosis/necrosis); format: cell-based; conditions: MCF-7, treated at IC50, 48 h
Experimental: (§2) Annexin V/PI staining and cell cycle analysis […] MCF-7 cells were added to 6-well culture plates, which were then placed in the incubator for the night. […] Following that, PBS was rinsed with ice-cold water before cells and media supernatants were gathered. The cells were then treated with “Annexin V-FITC solution (1:100) and propidium iodide (PI)” at a concentration of 10 µg/mL for 30 min in the dark after being suspended in […] of annexin-binding buffer solution, which was composed of 25 mM CaCl2, 1.4 M NaCl, and 0.1 M Hepes/NaOH, pH 7.4. Then, labeled cells were collected using the Cytoflex FACS system. The data were assessed using the cytExpert program.

MCF-7 cells [4] = test: Wound-healing assay (scratch assay); format: cell-based; conditions: MCF-7, treated at IC50 of compound, 48 h, mean ± SD
Experimental: The wound-healing test was mentioned in previous research. Six-well plates containing starvation media were filled with four […] MCF-7 cells per well, and the plates were subsequently incubated at 37 °C for the whole night. A sterile 1 mL pipette tip was used to generate a scratch of the cell monolayer once it was established the following day that the cells had adhered to the well and that cell confluence had reached 90%. Starvation media was used to clean the cells before they were removed from the plates. […] After 48 h, the medium was immediately changed to PBS, the wound gap was examined, and cells—both control and treated—were captured on camera with a digital camera attached to an Olympus microscope. The region where the wound closes was measured.

MCF-7 cells [5] = test: DNA content flow cytometry (cell cycle analysis); format: cell-based; conditions: MCF-7, treated at IC50, 48 h
Experimental: as §2

T2 sequence (P42336 whole entry): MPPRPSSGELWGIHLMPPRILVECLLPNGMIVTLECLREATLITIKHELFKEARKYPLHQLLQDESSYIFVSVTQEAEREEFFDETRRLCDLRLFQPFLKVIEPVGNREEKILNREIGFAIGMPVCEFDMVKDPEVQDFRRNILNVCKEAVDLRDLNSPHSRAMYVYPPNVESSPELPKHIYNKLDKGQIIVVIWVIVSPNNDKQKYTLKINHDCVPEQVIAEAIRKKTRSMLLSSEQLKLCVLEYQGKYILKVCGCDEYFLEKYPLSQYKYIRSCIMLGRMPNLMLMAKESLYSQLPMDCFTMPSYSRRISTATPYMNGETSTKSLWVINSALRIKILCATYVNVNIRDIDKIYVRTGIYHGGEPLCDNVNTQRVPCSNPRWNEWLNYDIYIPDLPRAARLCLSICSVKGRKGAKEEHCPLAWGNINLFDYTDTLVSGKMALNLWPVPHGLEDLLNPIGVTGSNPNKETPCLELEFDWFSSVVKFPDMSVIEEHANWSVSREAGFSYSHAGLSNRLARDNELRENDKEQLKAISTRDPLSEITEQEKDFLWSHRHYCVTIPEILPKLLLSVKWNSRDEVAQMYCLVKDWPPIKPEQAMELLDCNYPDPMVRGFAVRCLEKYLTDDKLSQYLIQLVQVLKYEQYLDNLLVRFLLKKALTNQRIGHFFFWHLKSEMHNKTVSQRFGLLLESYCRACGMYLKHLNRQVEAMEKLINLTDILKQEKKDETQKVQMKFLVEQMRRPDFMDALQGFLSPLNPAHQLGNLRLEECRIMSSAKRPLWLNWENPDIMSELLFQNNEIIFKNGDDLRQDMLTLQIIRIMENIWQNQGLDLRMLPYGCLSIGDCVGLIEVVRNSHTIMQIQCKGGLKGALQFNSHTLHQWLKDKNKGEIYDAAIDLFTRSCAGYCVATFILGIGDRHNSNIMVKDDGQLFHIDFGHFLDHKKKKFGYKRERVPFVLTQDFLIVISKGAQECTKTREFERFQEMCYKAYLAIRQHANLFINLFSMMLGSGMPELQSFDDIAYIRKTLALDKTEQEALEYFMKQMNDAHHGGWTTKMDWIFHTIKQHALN
T2 sequence (P27986 whole entry partner): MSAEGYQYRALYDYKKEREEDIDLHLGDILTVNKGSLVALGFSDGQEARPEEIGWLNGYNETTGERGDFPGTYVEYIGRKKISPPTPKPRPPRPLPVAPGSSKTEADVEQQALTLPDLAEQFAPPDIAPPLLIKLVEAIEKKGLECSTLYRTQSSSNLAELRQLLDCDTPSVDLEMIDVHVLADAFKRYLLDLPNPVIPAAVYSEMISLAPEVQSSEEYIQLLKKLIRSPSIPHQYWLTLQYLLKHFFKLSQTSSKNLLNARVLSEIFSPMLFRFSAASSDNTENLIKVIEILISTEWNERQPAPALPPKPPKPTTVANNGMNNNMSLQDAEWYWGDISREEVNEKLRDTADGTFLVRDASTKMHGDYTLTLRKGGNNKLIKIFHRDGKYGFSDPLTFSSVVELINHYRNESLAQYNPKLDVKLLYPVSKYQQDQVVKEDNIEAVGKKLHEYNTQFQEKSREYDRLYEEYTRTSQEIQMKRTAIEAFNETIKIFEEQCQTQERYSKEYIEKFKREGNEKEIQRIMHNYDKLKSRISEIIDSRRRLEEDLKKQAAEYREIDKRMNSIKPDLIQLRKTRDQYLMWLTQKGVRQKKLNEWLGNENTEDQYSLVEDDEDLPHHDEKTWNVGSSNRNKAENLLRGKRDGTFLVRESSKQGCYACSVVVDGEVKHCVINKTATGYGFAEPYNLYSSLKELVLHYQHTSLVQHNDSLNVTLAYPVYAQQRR
T1 sequence (O00329 whole entry): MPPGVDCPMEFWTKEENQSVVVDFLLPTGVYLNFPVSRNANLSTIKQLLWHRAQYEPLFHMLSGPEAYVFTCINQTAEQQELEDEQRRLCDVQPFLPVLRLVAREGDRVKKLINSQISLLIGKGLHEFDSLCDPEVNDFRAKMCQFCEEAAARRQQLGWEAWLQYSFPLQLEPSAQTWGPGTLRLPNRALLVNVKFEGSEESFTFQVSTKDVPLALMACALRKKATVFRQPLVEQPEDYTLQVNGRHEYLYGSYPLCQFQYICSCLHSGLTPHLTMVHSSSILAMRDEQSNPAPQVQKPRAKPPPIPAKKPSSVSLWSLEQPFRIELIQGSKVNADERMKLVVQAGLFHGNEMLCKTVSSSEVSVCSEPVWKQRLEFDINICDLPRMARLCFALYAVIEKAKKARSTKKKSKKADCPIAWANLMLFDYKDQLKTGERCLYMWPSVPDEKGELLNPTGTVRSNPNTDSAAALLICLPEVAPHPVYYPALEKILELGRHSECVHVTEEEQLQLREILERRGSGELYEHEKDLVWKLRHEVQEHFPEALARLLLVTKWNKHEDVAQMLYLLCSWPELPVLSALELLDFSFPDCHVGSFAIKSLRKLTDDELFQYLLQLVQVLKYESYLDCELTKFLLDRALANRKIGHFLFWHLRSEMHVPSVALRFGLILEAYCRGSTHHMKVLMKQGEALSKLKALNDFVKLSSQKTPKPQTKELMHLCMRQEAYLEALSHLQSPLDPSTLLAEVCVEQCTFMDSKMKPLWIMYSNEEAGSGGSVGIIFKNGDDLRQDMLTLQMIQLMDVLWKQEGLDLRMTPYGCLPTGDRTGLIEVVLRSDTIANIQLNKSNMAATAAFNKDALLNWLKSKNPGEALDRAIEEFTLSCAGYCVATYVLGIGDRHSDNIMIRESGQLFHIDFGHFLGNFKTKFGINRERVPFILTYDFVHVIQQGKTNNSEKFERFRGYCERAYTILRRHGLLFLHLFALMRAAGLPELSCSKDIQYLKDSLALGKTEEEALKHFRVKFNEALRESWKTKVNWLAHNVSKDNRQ
T1 sequence (P27986 whole entry partner): as the sequence (P27986 whole entry partner) above
T6 sequence (P42338 whole entry): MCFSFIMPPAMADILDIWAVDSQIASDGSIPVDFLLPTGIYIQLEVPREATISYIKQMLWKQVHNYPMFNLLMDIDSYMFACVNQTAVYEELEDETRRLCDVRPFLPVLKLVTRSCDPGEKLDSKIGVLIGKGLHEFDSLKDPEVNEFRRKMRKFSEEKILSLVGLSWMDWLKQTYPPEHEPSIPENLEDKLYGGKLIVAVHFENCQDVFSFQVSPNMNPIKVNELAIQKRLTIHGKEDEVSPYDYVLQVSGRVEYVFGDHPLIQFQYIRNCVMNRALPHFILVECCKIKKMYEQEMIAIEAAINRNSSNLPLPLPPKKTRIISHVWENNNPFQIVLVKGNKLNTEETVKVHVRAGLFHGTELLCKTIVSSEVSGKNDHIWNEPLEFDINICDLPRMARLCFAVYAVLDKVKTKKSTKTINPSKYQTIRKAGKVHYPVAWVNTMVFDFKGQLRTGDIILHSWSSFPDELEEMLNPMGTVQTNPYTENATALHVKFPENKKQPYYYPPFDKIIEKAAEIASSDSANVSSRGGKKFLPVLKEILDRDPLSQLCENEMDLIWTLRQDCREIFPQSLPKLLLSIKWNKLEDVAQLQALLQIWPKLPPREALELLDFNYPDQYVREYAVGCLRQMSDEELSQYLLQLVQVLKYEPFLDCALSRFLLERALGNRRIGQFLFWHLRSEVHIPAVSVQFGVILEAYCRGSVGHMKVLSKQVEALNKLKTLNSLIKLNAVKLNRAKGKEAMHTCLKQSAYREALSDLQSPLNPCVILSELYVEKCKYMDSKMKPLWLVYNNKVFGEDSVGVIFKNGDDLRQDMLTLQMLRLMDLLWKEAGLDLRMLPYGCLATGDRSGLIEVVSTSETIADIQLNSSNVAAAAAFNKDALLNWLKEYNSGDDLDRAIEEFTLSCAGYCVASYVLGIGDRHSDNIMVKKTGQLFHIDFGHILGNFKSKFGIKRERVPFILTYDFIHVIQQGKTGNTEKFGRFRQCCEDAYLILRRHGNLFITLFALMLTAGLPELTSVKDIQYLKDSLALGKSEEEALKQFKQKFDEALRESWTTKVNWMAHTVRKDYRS
T6 sequence (P27986 whole entry partner): as the sequence (P27986 whole entry partner) above
T5 sequence (P31749 whole entry): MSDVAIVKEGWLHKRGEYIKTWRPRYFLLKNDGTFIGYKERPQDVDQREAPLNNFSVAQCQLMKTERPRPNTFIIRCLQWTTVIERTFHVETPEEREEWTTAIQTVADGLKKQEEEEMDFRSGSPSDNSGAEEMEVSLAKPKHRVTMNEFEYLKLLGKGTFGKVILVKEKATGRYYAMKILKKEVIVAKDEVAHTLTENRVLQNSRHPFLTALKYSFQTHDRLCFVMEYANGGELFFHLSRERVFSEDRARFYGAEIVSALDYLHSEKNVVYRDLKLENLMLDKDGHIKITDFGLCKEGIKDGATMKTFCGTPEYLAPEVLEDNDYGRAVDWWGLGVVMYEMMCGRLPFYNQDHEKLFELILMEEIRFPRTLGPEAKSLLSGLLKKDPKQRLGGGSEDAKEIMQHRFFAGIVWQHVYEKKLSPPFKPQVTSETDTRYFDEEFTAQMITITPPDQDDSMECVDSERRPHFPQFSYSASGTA

Row | SMILES | melting point [°C] | IC50 ([1]; Homo sapiens, MCF7, 48 h) [µM] | Annexin V/PI Staining Early (early apoptosis) (MCF-7 cells [3]) [%] | Annexin V/PI Staining Late (late apoptosis) (MCF-7 cells [3]) [%] | Annexin V/PI Staining Necrosis (MCF-7 cells [3]) [%] | Annexin V/PI Staining Total (total cell death) (MCF-7 cells [3]) | %Closure, MCF-7 (wound closure) (MCF-7 cells [4]) | DNA Content %G0-G1 (MCF-7 cells [5]) [%] | DNA Content %G2/M (MCF-7 cells [5]) [%] | DNA Content %Pre-G1 (MCF-7 cells [5]) [%] | DNA Content %S (MCF-7 cells [5]) | further results
1 | CCOC(=O)c1[nH]c2ccccc2c1C=O [Compound 1, ethyl 3-formyl-1H-indole-2-carboxylate] |  | 19.7 ± 2.31 |  |  |  |  |  |  |  |  |  | 
2 | CCOC(=O)c1[nH]c2ccccc2c1/C=N/N=C/c1c(C(=O)OCC)[nH]c2ccccc12 [Compound 5, Diethyl 3,3’-((1E,1’E)-hydrazine-1,2-diylidenebis(methaneylylidene))bis(1H-indole-2-carboxylate)] |  | 2.73 ± 0.14 | 7.11 | 22.24 | 9.91 | 39.26% | 48.88% and 48.8% | 39.07 | 4.74 | 39.26 | 56.2% and 56.19% | IC50 (PI3K-δ): 2.68 ± 0.15 µM; IC50 (PI3K-α; average of three independent replicates, read-out: IC50 ± SD PI3K-α): 1.73 ± 0.1 µM; fold higher potency than LY294002 against PI3K-α (PI3K-α; versus LY294002): 4.92 fold; IC50 (EGFR): 0.058 ± 0.029 µM; IC50 (CDK2): 0.156 ± 0.01 µM; IC50 (AKT-1): 0.602 ± 0.03 µM; IC50 (PI3K-β): 2.27 ± 0.11 µM; tumor volume [2]: 56.4 mm^3; solid tumor mass [2]: 126.5 mg; tumor proliferation inhibition (TIR%) [2]: 46.9%; apoptosis (apoptosis ratio, early + late) (MCF-7 cells [3]): 29.35%; fold higher potency than reference drug staurosporine against MCF-7 [1]: 3 fold
3 | O=c1[nH]cc(F)c(=O)[nH]1 [Compound 5-FU, 5-FU, reference compound] |  |  |  |  |  |  |  |  |  |  |  | tumor volume [2]: 43.7 mm^3; solid tumor mass [2]: 110 mg; tumor proliferation inhibition (TIR%) [2]: 58.8%
4 | CCOC(=O)c1[nH]c2ccccc2c1/C=N/n1c(-c2cc3ccccc3[nH]2)n[nH]c1=S [Compound 8, Ethyl (E)-3-(((3-(1H-indol-2-yl)-5-thioxo-1,5-dihydro-4H-1,2,4-triazol-4-yl)imino)methyl)-1H-indole-2-carboxylate] |  | 4.38 ± 0.23 | 2.27 | 13.45 | 8.66 | 24.4% and 24.38% | 60.74% and 60.7% | 47.10 | 6.57 | 24.38 | 46.31% | apoptosis (apoptosis ratio, early + late) (MCF-7 cells [3]): 15.72%; fold higher potency than reference drug staurosporine against MCF-7 [1]: up to 1.9 fold
5 | CCOC(=O)c1[nH]c2ccccc2c1/C=N/Nc1ccc([N+](=O)[O-])cc1[N+](=O)[O-] [Compound 12, Ethyl (E)-3-((2-(2,4-dinitrophenyl)hydrazineylidene)methyl)-1H-indole-2-carboxylate] |  |  | 4.59 | 17.44 | 15.02 | 37% and 37.05% | 51.85% and 51.8% | 59.33 | 2.55 | 37.05 | 38.10% | IC50 ([1]; Homo sapiens, MCF7): 7.03 ± 0.37 µM
6 | O=c1cc(N2CCOCC2)oc2c(-c3ccccc3)cccc12 [LY294002, reference compound] |  |  |  |  |  |  |  |  |  |  |  | IC50 (PI3K-δ): 0.85 ± 0.05 µM

More lines, main results first:

Row | melting point [°C] | SMILES | IC50 ([1]; Homo sapiens, MCF7, 48 h) [µM] | Annexin V/PI Staining Early (early apoptosis) (MCF-7 cells [3]) [%] | Annexin V/PI Staining Late (late apoptosis) (MCF-7 cells [3]) [%] | Annexin V/PI Staining Necrosis (MCF-7 cells [3]) [%] | Annexin V/PI Staining Total (total cell death) (MCF-7 cells [3]) | %Closure, MCF-7 (wound closure) (MCF-7 cells [4]) | DNA Content %G0-G1 (MCF-7 cells [5]) [%] | DNA Content %G2/M (MCF-7 cells [5]) [%] | DNA Content %Pre-G1 (MCF-7 cells [5]) [%] | DNA Content %S (MCF-7 cells [5]) | further results
7 | 229 to 230 | CCOC(=O)c1[nH]c2ccccc2c1/C=N/NC(N)=S [Compound 3, Ethyl (E)-3-((2-carbamothioylhydrazineylidene)methyl)-1H-indole-2-carboxylate] | 9.42 ± 0.57 |  |  |  |  |  |  |  |  |  | IC50 [1]: 10.2 ± 0.53 µM
8 | 285 to 286 | CCOC(=O)c1[nH]c2ccccc2c1/C=N/NC(N)=O [Compound 6, Ethyl (E)-3-((2-carbamoylhydrazineylidene)methyl)-1H-indole-2-carboxylate] | 10.2 ± 0.53 |  |  |  |  |  |  |  |  |  | IC50 [1]: 9.42 ± 0.57 µM
9 | 270 to 271 | CCOC(=O)c1[nH]c2ccccc2c1/C=N/Nc1ccc([N+](=O)[O-])cc1 [Compound 10, Ethyl (E)-3-((2-(4-nitrophenyl)hydrazineylidene)methyl)-1H-indole-2-carboxylate] | 25.4 ± 1.54 |  |  |  |  |  |  |  |  |  | 
